From the supplement of paper PMC10307832

Assays:
Test in all cases: relative viability (nuclei count vs DMSO), 5 days (fraction); higher = more cells survive
ABC-1 = system: ABC-1
Outline: (§1)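 After 5 days of treatment, lung cancer cells in 1536-well plates were fixed and stained in a single step (final 0.05% Triton X-100, 1% formaldehyde, 1 ug/ml Hoechst) and their nuclei counted on 4× images. Treatment had been applied by pin tool the day after seeding as one drug alone or as a fixed anchor-drug dose with five library-drug doses (not always all listed) in √10 steps. Relative viability is the nuclei count of treated wells divided by that of vehicle wells, and values are medians of duplicate plates.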

CAL-12T = system: CAL-12T
Outline: as §1

COR-L 105 = system: COR-L 105
Outline: as §1

ChaGo-K-1 = system: ChaGo-K-1
Outline: as §1

EKVX = system: EKVX
Outline: as §1

EPLC-272H = system: EPLC-272H
Outline: as §1

H3255 = system: H3255
Outline: as §1

HCC-366 = system: HCC-366
Outline: as §1

HCC-827 = system: HCC-827
Outline: as §1

NCI-H1355 = system: NCI-H1355
Outline: as §1

NCI-H1975 = system: NCI-H1975
Outline: as §1

NCI-H1993 = system: NCI-H1993
Outline: as §1

NCI-H2009 = system: NCI-H2009
Outline: as §1

NCI-H2085 = system: NCI-H2085
Outline: as §1

NCI-H2087 = system: NCI-H2087
Outline: as §1

NCI-H2228 = system: NCI-H2228
Outline: as §1

NCI-H2342 = system: NCI-H2342
Outline: as §1

NCI-H322M = system: NCI-H322M
Outline: as §1

NCI-H441 = system: NCI-H441
Outline: as §1

NCI-H460 = system: NCI-H460
Outline: as §1

SK-MES-1 = system: SK-MES-1
Outline: as §1

CN1CCN(CCOc2cc(OC3CCOCC3)c3c(Nc4c(Cl)ccc5c4OCO5)ncnc3c2)CC1 [Saracatinib] + COc1cc2c(Oc3ccc(NC(=O)C4(C(=O)Nc5ccc(F)cc5)CC4)cc3F)ccnc2cc1OCCCN1CCOCC1 [Foretinib] (partner 0.25 µM)
relative viability (ABC-1; first compound 0.02 µM): 1.08
relative viability (ABC-1; first compound 0.2 µM): 0.975
relative viability (ABC-1; first compound 0.6325 µM): 0.998
relative viability (ABC-1; first compound 2 µM): 1.01
relative viability (CAL-12T; first compound 0.02 µM): 1.12
relative viability (CAL-12T; first compound 0.2 µM): 1.02
relative viability (CAL-12T; first compound 0.6325 µM): 1.33
relative viability (CAL-12T; first compound 2 µM): 1.18
relative viability (COR-L 105; first compound 0.02 µM): 0.973
relative viability (COR-L 105; first compound 0.2 µM): 1.04
relative viability (COR-L 105; first compound 0.6325 µM): 1.09
relative viability (COR-L 105; first compound 2 µM): 0.816
relative viability (ChaGo-K-1; first compound 0.02 µM): 0.943
relative viability (ChaGo-K-1; first compound 0.2 µM): 0.699
relative viability (ChaGo-K-1; first compound 0.6325 µM): 0.973
relative viability (ChaGo-K-1; first compound 2 µM): 0.874
relative viability (EKVX; first compound 0.02 µM): 0.866
relative viability (EKVX; first compound 0.6325 µM): 0.268
relative viability (EKVX; first compound 2 µM): 0.401
relative viability (EPLC-272H; first compound 0.02 µM): 0.403
relative viability (EPLC-272H; first compound 0.2 µM): 0.73
relative viability (EPLC-272H; first compound 0.6325 µM): 0.646
relative viability (EPLC-272H; first compound 2 µM): 0.435
relative viability (H3255; first compound 0.02 µM): 0.97
relative viability (H3255; first compound 0.2 µM): 0.749
relative viability (H3255; first compound 0.6325 µM): 0.987
relative viability (H3255; first compound 2 µM): 0.3
relative viability (HCC-366; first compound 0.02 µM): 0.896
relative viability (HCC-366; first compound 0.6325 µM): 0.844
relative viability (HCC-366; first compound 2 µM): 0.531
relative viability (HCC-827; first compound 0.02 µM): 1.08
relative viability (HCC-827; first compound 0.2 µM): 0.452
relative viability (HCC-827; first compound 0.6325 µM): 0.193
relative viability (HCC-827; first compound 2 µM): 0.17
relative viability (NCI-H1355; first compound 0.02 µM): 0.965
relative viability (NCI-H1355; first compound 0.2 µM): 0.991
relative viability (NCI-H1355; first compound 0.6325 µM): 1.1
relative viability (NCI-H1355; first compound 2 µM): 0.934
relative viability (NCI-H1975; first compound 0.02 µM): 0.956
relative viability (NCI-H1975; first compound 0.2 µM): 0.85
relative viability (NCI-H1975; first compound 0.6325 µM): 0.96
relative viability (NCI-H1975; first compound 2 µM): 0.631
relative viability (NCI-H1993; first compound 0.02 µM): 0.692
relative viability (NCI-H1993; first compound 0.2 µM): 0.625
relative viability (NCI-H1993; first compound 0.6325 µM): 0.696
relative viability (NCI-H1993; first compound 2 µM): 0.552
relative viability (NCI-H2009; first compound 0.02 µM): 1.22
relative viability (NCI-H2009; first compound 0.2 µM): 1.14
relative viability (NCI-H2009; first compound 0.6325 µM): 0.951
relative viability (NCI-H2009; first compound 2 µM): 1.03
relative viability (NCI-H2085; first compound 0.02 µM): 0.986
relative viability (NCI-H2085; first compound 0.2 µM): 0.839
relative viability (NCI-H2085; first compound 0.6325 µM): 0.751
relative viability (NCI-H2085; first compound 2 µM): 0.668
relative viability (NCI-H2087; first compound 0.02 µM): 1.07
relative viability (NCI-H2087; first compound 0.2 µM): 0.874
relative viability (NCI-H2087; first compound 0.6325 µM): 1.1
relative viability (NCI-H2087; first compound 2 µM): 1.07
relative viability (NCI-H2228; first compound 0.02 µM): 0.765
relative viability (NCI-H2228; first compound 0.2 µM): 0.733
relative viability (NCI-H2228; first compound 0.6325 µM): 0.873
relative viability (NCI-H2228; first compound 2 µM): 0.591
relative viability (NCI-H2342; first compound 0.02 µM): 0.84
relative viability (NCI-H2342; first compound 0.2 µM): 0.856
relative viability (NCI-H2342; first compound 0.6325 µM): 1.11
relative viability (NCI-H2342; first compound 2 µM): 0.925
relative viability (NCI-H322M; first compound 0.02 µM): 1.01
relative viability (NCI-H322M; first compound 0.2 µM): 0.921
relative viability (NCI-H322M; first compound 0.6325 µM): 0.826
relative viability (NCI-H322M; first compound 2 µM): 0.403
relative viability (NCI-H441; first compound 0.02 µM): 1.04
relative viability (NCI-H441; first compound 0.2 µM): 0.985
relative viability (NCI-H441; first compound 0.6325 µM): 1.08
relative viability (NCI-H441; first compound 2 µM): 1.13
relative viability (NCI-H460; first compound 0.02 µM): 1.02
relative viability (NCI-H460; first compound 0.2 µM): 0.882
relative viability (NCI-H460; first compound 0.6325 µM): 1.06
relative viability (NCI-H460; first compound 2 µM): 0.867
relative viability (SK-MES-1; first compound 0.02 µM): 0.94
relative viability (SK-MES-1; first compound 0.2 µM): 0.772
relative viability (SK-MES-1; first compound 0.6325 µM): 0.798
relative viability (SK-MES-1; first compound 2 µM): 0.533
